According to ChEMBL document CHEMBL1201862, “PubChem BioAssay data set” (2004):
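In this assay, cells in 96-well plates receive the compound at five concentrations for 48 hours. Endpoints are linearly interpolated between the surrounding concentrations. GI50 marks 50% less growth.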 Activity calls are given as the source filed them. Rule as the data show it: active = GI50 up to about 1.1 µM and inactive = higher. Where a SMILES comes first, the peptide text is derived from it. The star is where a group is joined. Cbz = O=C(OCc1ccccc1)*; Boc = CC(C)(C)OC(=O)*; Bn = c1ccc(C*)cc1

Assays:
Assay in all cases: DTP human tumour cell line panel, 48 h
TK-10 = tested on: TK-10
HL-60 = tested on: HL-60
SK-MEL-5 = tested on: SK-MEL-5
NCI-H522 = tested on: NCI-H522
K562 = tested on: K562
OVCAR-3 = tested on: OVCAR-3
A549 = tested on: A549
SN12C = tested on: SN12C
KM12 = tested on: KM12
U-251 = tested on: U-251
Malme-3M = tested on: Malme-3M
NCI-H226 = tested on: NCI-H226
NCI-H23 = tested on: NCI-H23
A498 = tested on: A498
Hs-578T = tested on: Hs-578T
MDA-MB-435 = tested on: MDA-MB-435
DU-145 = tested on: DU-145
T47D = tested on: T47D
MDA-N = tested on: MDA-N

| Structure (SMILES) | GI50 (TK-10) | GI50 (HL-60) | GI50 (SK-MEL-5) | GI50 (NCI-H522) | GI50 (K562) | GI50 (OVCAR-3) | GI50 (A549) | GI50 (SN12C) | GI50 (KM12) | GI50 (U-251) | GI50 (Malme-3M) | GI50 (NCI-H226) | GI50 (NCI-H23) | GI50 (A498) | GI50 (Hs-578T) | GI50 (MDA-MB-435) | GI50 (DU-145) | GI50 (T47D) | GI50 (MDA-N) |
| --- | --- | --- | --- | --- | --- | --- | --- | --- | --- | --- | --- | --- | --- | --- | --- | --- | --- | --- | --- |
| COC1=NCc2ccccc2-c2ccccc21 | > 100 µM (inactive) | > 100 µM (inactive) | > 100 µM (inactive) | > 100 µM (inactive) | > 100 µM (inactive) | > 100 µM (inactive) | > 100 µM (inactive) | > 100 µM (inactive) | > 100 µM (inactive) | > 100 µM (inactive) | > 100 µM (inactive) | > 100 µM (inactive) | > 100 µM (inactive) | – | – | – | – | – | – |
| O=C(NC1CCCCC1NC(c1ccccc1)(c1ccccc1)c1ccccc1)C(=O)NC1CCCCC1NC(c1ccccc1)(c1ccccc1)c1ccccc1 (stereo unspecified) | > 100 µM (inactive) | > 100 µM (inactive) | > 100 µM (inactive) | 89.9 µM (inactive) | > 100 µM (inactive) | > 100 µM (inactive) | > 100 µM (inactive) | > 100 µM (inactive) | > 100 µM (inactive) | 21 µM (inactive) | > 100 µM (inactive) | 59.3 µM (inactive) | > 100 µM (inactive) | 28.9 µM (inactive) | 13.6 µM (inactive) | > 100 µM (inactive) | > 100 µM (inactive) | 60.4 µM (inactive) | – |
| COc1cc(-c2oc3c(OC)c(O)c(OC)c(O)c3c(=O)c2OC)cc(O)c1OC | 39.2 µM (inactive) | 24.8 µM (inactive) | 21.4 µM (inactive) | 24.3 µM (inactive) | 26.5 µM (inactive) | 24.7 µM (inactive) | 46.9 µM (inactive) | 34.4 µM (inactive) | 14.3 µM (inactive) | 43.4 µM (inactive) | 23.9 µM (inactive) | > 100 µM (inactive) | 22.6 µM (inactive) | 22.5 µM (inactive) | – | 19.6 µM (inactive) | 37.1 µM (inactive) | 32.8 µM (inactive) | 17.7 µM (inactive) |
| COc1ccc(Nc2nc3c([nH]2)c(=O)n(C)c(=O)n3C)cc1 | > 10 µM (inactive) | > 10 µM (inactive) | > 10 µM (inactive) | – | > 10 µM (inactive) | – | > 10 µM (inactive) | > 10 µM (inactive) | > 10 µM (inactive) | – | > 10 µM (inactive) | – | > 10 µM (inactive) | – | – | > 10 µM (inactive) | > 10 µM (inactive) | > 10 µM (inactive) | > 10 µM (inactive) |
| COc1ccc2nc3n(c2c1)C(c1c(Cl)cccc1Cl)SC3 (stereo unspecified) | > 100 µM (inactive) | > 100 µM (inactive) | > 100 µM (inactive) | – | > 100 µM (inactive) | > 100 µM (inactive) | > 100 µM (inactive) | > 100 µM (inactive) | > 100 µM (inactive) | > 100 µM (inactive) | – | > 100 µM (inactive) | > 100 µM (inactive) | > 100 µM (inactive) | – | > 100 µM (inactive) | > 100 µM (inactive) | > 100 µM (inactive) | 87.9 µM (inactive) |
| CN(C)c1ccc(-c2c(C#N)c(-c3ccccc3)n(NS(=O)(=O)c3ccccc3)c(=O)c2C#N)cc1 | 79.6 µM (inactive) | – | 20.4 µM (inactive) | 58.3 µM (inactive) | 49.1 µM (inactive) | – | 42.9 µM (inactive) | 68.9 µM (inactive) | 65.6 µM (inactive) | 50.7 µM (inactive) | 40.1 µM (inactive) | > 100 µM (inactive) | – | 57 µM (inactive) | 23.1 µM (inactive) | 71.4 µM (inactive) | – | – | 68.1 µM (inactive) |
| CC1(C(O)c2ccccc2)CN(C(C)(C)C)C(=O)/C1=C\Sc1ccccc1 (stereo unspecified) | > 100 µM (inactive) | 24.7 µM (inactive) | 43.7 µM (inactive) | 2.48 µM (inactive) | 42.1 µM (inactive) | 21.2 µM (inactive) | 20.2 µM (inactive) | 33.9 µM (inactive) | 31.8 µM (inactive) | 22.6 µM (inactive) | – | – | > 100 µM (inactive) | > 100 µM (inactive) | – | 30.1 µM (inactive) | > 100 µM (inactive) | 13.3 µM (inactive) | 39.1 µM (inactive) |
| Nc1ncnc2c1ncn2[C@@H]1O[C@H](COC(c2ccccc2)(c2ccccc2)c2ccccc2)[C@@H](OC(=S)Oc2ccccc2)[C@@H]1F | 17.6 µM (inactive) | 3.18 µM (inactive) | 4.89 µM (inactive) | 2.24 µM (inactive) | 3.34 µM (inactive) | 4.55 µM (inactive) | 15 µM (inactive) | 4.46 µM (inactive) | 4.72 µM (inactive) | 10.2 µM (inactive) | – | 11.4 µM (inactive) | 3.94 µM (inactive) | 18.3 µM (inactive) | 6.28 µM (inactive) | 4.03 µM (inactive) | 15.1 µM (inactive) | 8.2 µM (inactive) | – |
| COc1cc2c(cc1OCCCN1CCOCC1)N=C[C@@H]1CCCN1C2=O | 19.8 µM (inactive) | 5.74 µM (inactive) | 4.07 µM (inactive) | 1.25 µM (inactive) | 4.73 µM (inactive) | 2.83 µM (inactive) | 35.7 µM (inactive) | 23.6 µM (inactive) | 13.4 µM (inactive) | 4.41 µM (inactive) | 8.3 µM (inactive) | 4.66 µM (inactive) | – | 10.1 µM (inactive) | 16.9 µM (inactive) | 11.8 µM (inactive) | 21.7 µM (inactive) | – | 6.89 µM (inactive) |
| COC(=O)CSc1[nH]c2nc(C)nc(Nc3ccccc3)c2c1C#N | > 10 µM (inactive) | > 10 µM (inactive) | > 10 µM (inactive) | – | > 10 µM (inactive) | – | > 10 µM (inactive) | > 10 µM (inactive) | > 10 µM (inactive) | – | > 10 µM (inactive) | – | > 10 µM (inactive) | – | – | > 10 µM (inactive) | > 10 µM (inactive) | > 10 µM (inactive) | > 10 µM (inactive) |
| O=c1c2cc([N+](=O)[O-])ccc2n2n1CCCCC2 | 61.8 µM (inactive) | > 100 µM (inactive) | > 100 µM (inactive) | > 100 µM (inactive) | > 100 µM (inactive) | > 100 µM (inactive) | > 100 µM (inactive) | > 100 µM (inactive) | > 100 µM (inactive) | > 100 µM (inactive) | > 100 µM (inactive) | > 100 µM (inactive) | > 100 µM (inactive) | > 100 µM (inactive) | > 100 µM (inactive) | > 100 µM (inactive) | > 100 µM (inactive) | – | > 100 µM (inactive) |
| CC(C)(C)OC(=O)NC(Cc1ccc(OCc2ccccc2)cc1)C(=O)NC(CCCCNC(=O)OCc1ccccc1)C(=O)O (stereo unspecified) (Boc-Tyr(Bn)-Lys(Cbz)-OH; configuration not given here) | 67.3 µM (inactive) | 34.7 µM (inactive) | 40.6 µM (inactive) | – | 42.8 µM (inactive) | – | > 100 µM (inactive) | 30.5 µM (inactive) | 28.2 µM (inactive) | 33.8 µM (inactive) | 94.2 µM (inactive) | 96.4 µM (inactive) | 29.2 µM (inactive) | – | 69.3 µM (inactive) | – | – | – | 40.1 µM (inactive) |
| CN(C)CCCNc1ncnc2c1ncn2C1OC(CO)C(O)C1O (stereo unspecified) | > 100 µM (inactive) | > 100 µM (inactive) | > 100 µM (inactive) | > 100 µM (inactive) | > 100 µM (inactive) | > 100 µM (inactive) | > 100 µM (inactive) | > 100 µM (inactive) | > 100 µM (inactive) | > 100 µM (inactive) | > 100 µM (inactive) | > 100 µM (inactive) | > 100 µM (inactive) | > 100 µM (inactive) | – | > 100 µM (inactive) | > 100 µM (inactive) | > 100 µM (inactive) | > 100 µM (inactive) |
| CCCCC(=O)c1ccc2ccccc2c1O | > 100 µM (inactive) | 51.3 µM (inactive) | > 100 µM (inactive) | – | 28.8 µM (inactive) | – | – | – | > 100 µM (inactive) | > 100 µM (inactive) | – | > 100 µM (inactive) | > 100 µM (inactive) | > 100 µM (inactive) | > 100 µM (inactive) | > 100 µM (inactive) | > 100 µM (inactive) | 49.2 µM (inactive) | – |
| Cc1nc2c(O)cccc2c(=O)[nH]1 | 302 µM (inactive) | 174 µM (inactive) | – | 356 µM (inactive) | 359 µM (inactive) | 542 µM (inactive) | 360 µM (inactive) | 532 µM (inactive) | 332 µM (inactive) | 670 µM (inactive) | 597 µM (inactive) | 203 µM (inactive) | 303 µM (inactive) | 419 µM (inactive) | 573 µM (inactive) | 883 µM (inactive) | – | – | 504 µM (inactive) |
| O=C(CCCC(=O)N1CC(CCl)c2ccc([N+](=O)[O-])cc21)N1CC(CCl)c2ccc([N+](=O)[O-])cc21 (stereo unspecified) | > 100 µM (inactive) | > 100 µM (inactive) | 97.9 µM (inactive) | 71.4 µM (inactive) | > 100 µM (inactive) | > 100 µM (inactive) | 33.3 µM (inactive) | > 100 µM (inactive) | – | > 100 µM (inactive) | – | > 100 µM (inactive) | > 100 µM (inactive) | 34 µM (inactive) | – | > 100 µM (inactive) | 81.3 µM (inactive) | > 100 µM (inactive) | > 100 µM (inactive) |
| O=C(n1c2ccccc2c2nnc(S)nc21)C(F)(F)F | 0.962 µM (active) | – | > 100 µM (inactive) | > 100 µM (inactive) | > 100 µM (inactive) | > 100 µM (inactive) | > 100 µM (inactive) | > 100 µM (inactive) | > 100 µM (inactive) | > 100 µM (inactive) | > 100 µM (inactive) | > 100 µM (inactive) | > 100 µM (inactive) | – | – | – | – | – | – |
